Earlier results in article PMC2918392 (Journal of medicinal chemistry, 2010).

What was measured:
[1] = test system: µ-opioid receptor
[2] = test system: µ-opioid receptor; conditions: see also ref 1
[3] = test system: µ opioid receptors (guinea pig ileum); conditions: read-out: Functional Bioactivity GPI (IC50), ± S.E.M.

Tyr-Pro-Trp-Phe-NH2 [EM-1]
affinity and selectivity of activation of µ-opioid receptors, in words [1]: high affinity and selectivity

Tyr-Pro-Phe-Phe-OH
µ-opioid receptor agonist activity, in words ([1]; C-terminal free acid): completely devoid of µ-opioid receptor agonist activity

Tyr-Pro-Phe-(2S,3S)-β-MePhe-NH2
activity among EM analogues containing β-MePhe stereoisomers, in words [1]: highest activity

Tyr-Pro-Phe-Phe-NH2 [EM-2]
affinity and selectivity of activation of µ-opioid receptors, in words [1]: high affinity and selectivity | µ-opioid receptor selectivity, in words [2]: c Data from reference 16. Binding affinity based on competition against [^3H]naloxone in rat brain membranes. Data were not presented on the affinity of EM2 at the δ-opioid receptor in that preparation, as EM was shown to be highly selective for µ-opioid receptors (see also reference 1). | IC50 [3]: 15 ± 2 nM
